Measured values reported in patent US7208500B2, “Thienopyridine-phenylacetamides and their derivatives useful as new anti-angiogenic agents” (Agouron Pharmaceuticals, Inc., priority 2003, dated 2007).

Experiments:
[1] = system: human umbilical vein endothelial cells (HUVEC); experiment: HUVEC + VEGF proliferation assay; type: cell-based; conditions: VEGF-stimulated proliferation, final VEGF 6 ng/mL, 72 hours, MTT
Experimental: This assay determines the ability of a test compound to inhibit the growth factor-stimulated proliferation of human umbilical vein endothelial cells (“HUVEC”). HUVEC cells (passage 3–4, Clonetics, Corp.) were thawed into EGM2 culture medium (Clonetics Corp) in T75 flasks. Fresh EGM2 medium was added to the flasks 24 hours later. Four or five days later, cells were exposed to another culture medium (F12K medium supplemented with 10% fetal bovine serum (FBS), […] endothelial cell growth supplement (ECGS), and 0.1 mg/mL heparin). Exponentially-growing HUVEC cells were used in experiments thereafter. Ten to twelve thousand HUVEC cells were plated in 96-well dishes in […] of rich, culture medium (described above). The cells were allowed to attach for 24 hours in this medium. The medium was then removed by aspiration and […] of starvation media (F12K+1% FBS) was added to each well. After 24 hours, […] of test agent dissolved in 1% DMSO in starvation medium or this vehicle alone was added into each treatment well; the final DMSO concentration was 0.1%. One hour later, […] of VEGF (30 ng/mL) in starvation media was added to all wells except those containing untreated controls; the final VEGF concentration was 6 ng/mL. Cellular proliferation was quantified 72 hours later by MTT dye reduction, at which time cells were exposed for 4 hours MTT (Promega Corp.). Dye reduction was stopped by addition of a stop solution (Promega Corp.) and absorbance at 595 nm was determined on a 96-well spectrophotometer plate reader.

[2] = molecular target: T1, FGF-R1 intracellular kinase domain (Homo sapiens, UniProt P11362, C488A/C584S/L457V); experiment: FGF-R spectrophotometric assay; type: biochemical; conditions: 50 nM test compound; read-out: FGF-P (% inh @ 50 nM)
T1 construct: starting from the endogenous methionine residue 456 to glutamate 766; made in house; host or cells: baculovirus vector expression system
Experimental: The intracellular kinase domain of human FGF-R1 was expressed using the baculovirus vector expression system starting from the endogenous methionine residue 456 to glutamate 766, according to the residue numbering system of Mohammadi et al., Mol. Cell. Biol., 16, 977–989 (1996). In addition, the construct also has the following 3 amino acid substitutions: L457V, C488A, and C584S.
The spectrophotometric assay was carried out as described above for VEGF-R2, except for the following changes in concentration: FGF-R=50 nM, ATP=2 mM, and poly(E4Y1)=15 mM.

[3] = molecular target: T2, unphosphorylated VEGF-R2D50 (FLVK), cytosolic domain of human VEGF-R2 (Homo sapiens, UniProt P35968, DEL940-989/E990V); experiment: VEGF-R2 coupled spectrophotometric assay (FLVK); type: biochemical
T2 construct: VEGF-R2D50 contains residues 806–939 and 990–1171; made in house; host or cells: baculovirus/insect cell system
Source text: This construct determines the ability of a test compound to inhibit tyrosine kinase activity. A construct (VEGF-R2D50) of the cytosolic domain of human vascular endothelial growth factor receptor 2 (VEGF-R2) lacking the 50 central residues of the 68 residues of the kinase insert domain was expressed in a baculovirus/insect cell system. Of the 1356 residues of full-length VEGF-R2, VEGF-R2D50 contains residues 806–939 and 990–1171, and also one point mutation (E990V) within the kinase insert domain relative to wild-type VEGF-R2. Autophosphorylation of the purified construct was performed by incubation of the enzyme at a concentration of […] in the presence of 3 mM ATP and 40 mM MgCl2 in 100 mM HEPES, pH 7.5, containing 5% glycerol and 5 mM DTT, at 4° C. for 2 h. […] See Parast et al., Biochemistry, 37, 16788–16801 (1998).
The production of ADP from ATP that accompanies phosphoryl transfer was coupled to oxidation of NADH using phosphoenolpyruvate (PEP) and a system having pyruvate kinase (PK) and lactic dehydrogenase (LDH). The oxidation of NADH was monitored by following the decrease of absorbance at 340 nm (e340=6.22 cm^−1 mM^−1) using a Beckman DU 650 spectrophotometer. Assay conditions for phosphorylated VEGF-R2D50 (indicated as FLVK-P in the tables below) were the following: 1 mM PEP; […]; 50 units of LDH/mL; 20 units of PK/mL; 5 mM DTT; 5.1 mM poly(E4Y1); 1 mM ATP; and 25 mM MgCl2 in 200 mM HEPES, pH 7.5. Assay conditions for unphosphorylated VEGF-R2D50 (indicated as FLVK in the tables) were the following: 1 mM PEP; […]; 50 units of LDH/mL; 20 units of PK/mL; 5 mM DTT; 20 mM poly(E4Y1); 3 mM ATP; and 60 mM MgCl2 and 2 mM MnCl2 in 200 mM HEPES, pH 7.5. Assays were initiated with 5 to 40 nM of enzyme. Ki values were determined by measuring enzyme activity in the presence of varying concentrations of test compounds. The percent inhibition at 50 nm (% inhibition@50 nm) was determined by linear least-squares regression analysis of absorpbance as a function of time. The binding inhibitions were fitted to equation as described by Morrison. The data were analyzed using Enzyme Kinetic and Kaleidagraph software.

T2 sequence (P35968 with tags, fused parts or gaps DEL940-989/E990V limits assumed): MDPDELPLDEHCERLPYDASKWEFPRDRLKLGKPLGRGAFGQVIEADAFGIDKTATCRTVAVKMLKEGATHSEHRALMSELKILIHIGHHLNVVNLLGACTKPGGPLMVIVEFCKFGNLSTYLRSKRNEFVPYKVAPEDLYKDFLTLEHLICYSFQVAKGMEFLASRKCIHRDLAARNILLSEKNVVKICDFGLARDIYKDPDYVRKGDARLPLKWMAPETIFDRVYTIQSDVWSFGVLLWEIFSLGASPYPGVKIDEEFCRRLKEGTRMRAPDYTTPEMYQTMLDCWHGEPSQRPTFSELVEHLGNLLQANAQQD
T1 sequence (P11362 456-766 L457V/C488A/C584S): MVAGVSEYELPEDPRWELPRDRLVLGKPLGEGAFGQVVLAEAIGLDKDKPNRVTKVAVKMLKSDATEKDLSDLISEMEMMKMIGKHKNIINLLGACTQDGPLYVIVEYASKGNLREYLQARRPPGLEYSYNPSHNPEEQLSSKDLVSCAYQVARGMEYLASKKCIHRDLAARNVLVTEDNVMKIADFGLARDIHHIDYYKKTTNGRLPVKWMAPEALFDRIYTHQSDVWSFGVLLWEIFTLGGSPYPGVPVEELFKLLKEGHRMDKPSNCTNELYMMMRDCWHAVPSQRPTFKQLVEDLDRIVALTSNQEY

SMILES | inhibition at 0.05 µM [2] | Ki [3] | IC50 [1]
CO[C@@H]1CCN(C(=O)c2cc3nccc(Oc4ccc(CC(=O)Nc5ccccn5)c(Cl)c4)c3s2)C1 [Example 62, 2-{2-Chloro-4-[2-((R)-3-methoxy-pyrrolidine-1-carbonyl)-thieno[3,2-b]pyridin-7-yloxy]-phenyl}-N-pyridin-2-yl-acetamide] | 0 to 5% | 1 to 10 nM | > 10 nM
C=C(C(=O)NC)c1ccc(Oc2ccnc3cc(C(=O)N4CC[C@@H](O)C4)sc23)cc1 [Example 66, 2-{4-[2-((R)-3-Hydroxy-pyrrolidine-1-carbonyl)-thieno[3,2-b]pyridin-7-yloxy]-phenyl}-N-methyl-acrylamide] | 0 to 5% | > 10 nM | > 10 nM
Cc1cc(NC(=O)Cc2ccc(Oc3ccnc4cc(C(=O)N5CCC5)sc34)cc2Cl)no1 [Example 52, 2-{4-[2-(Azetidine-1-carbonyl)-thieno[3,2-b]pyridin-7-yloxy]-2-chloro-phenyl}-N-(5-methyl-isoxazol-3-yl)-acetamide] | > 10% | 1 to 10 nM | > 10 nM
COc1ccc2c(Oc3ccc(CC(=O)Nc4ccc(Cl)cn4)cc3)ccnc2c1 [Example 87, N-(5-Chloro-pyridin-2-yl)-2-[4-(7-methoxy-quinolin-4-yloxy)-phenyl]-acetamide] | 0 to 5% | 1 to 10 nM | > 10 nM
O=C(Cc1ccc(Oc2ccnc3cc(C(=O)N4CC[C@@H](O)C4)sc23)cc1)Nc1ccc(Cl)cn1 [Example 16, N-(5-Chloro-pyridin-2-yl)-2-{4-[2-((R)-3-hydroxy-pyrrolidine-1-carbonyl)-thieno[3,2-b]pyridin-7-yloxy]-phenyl}-acetamide] | 0 to 5% | 1 to 10 nM | > 10 nM
CNC(=O)C(O)c1ccc(Oc2ccnc3cc(C(=O)N4CC[C@@H](O)C4)sc23)cc1 (stereo partly drawn) [Example 76, 2-Hydroxy-2-{4-[2-((R)-3-hydroxy-pyrrolidine-1-carbonyl)-thieno[3,2-b]pyridin-7-yloxy]-phenyl}-N-methyl-acetamide] | 0 to 5% | 1 to 10 nM | > 10 nM
O=C(Cc1ccc(Oc2ccnc3cc(C(=O)N4CCC4)sc23)cc1)Nc1nccc2ccccc12 [Example 32, 2-{4-[2-(Azetidine-1-carbonyl)-thieno[3,2-b]pyridin-7-yloxy]-phenyl}-N-isoquinolin-1-yl-acetamide] | 0 to 5% | 1 to 10 nM | > 10 nM
O=C(Cc1ccc(Oc2ccnc3cc(C(=O)N4CC[C@@H](O)C4)sc23)cc1)Nc1ccccn1 [Example 19, 2-{4-[2-((R)-3-Hydroxy-pyrrolidine-1-carbonyl)-thieno[3,2-b]pyridin-7-yloxy]-phenyl}-N-pyridin-2-yl-acetamide] | 0 to 5% | 1 to 10 nM | > 10 nM

Second part, led by results:

inhibition at 0.05 µM [2] | Ki [3] | SMILES | IC50 [1]
> 10% | < 1 nM | Cc1cc(C)nc(NC(=O)Cc2ccc(Oc3ccnc4cc(C(=O)N5CCC5)sc34)cc2Cl)c1 [Example 49, 2-{4-[2-(Azetidine-1-carbonyl)-thieno[3,2-b]pyridin-7-yloxy]-2-chloro-phenyl}-N-(4,6-dimethyl-pyridin-2-yl)-acetamide] | 1 to 10 nM
0 to 5% | 1 to 10 nM | Cn1ccnc1-c1cc2nccc(Oc3ccc(CC(=O)Nc4ccccn4)c(Cl)c3)c2s1 [Example 60, 2-{2-Chloro-4-[2-(1-methyl-1H-imidazol-2-yl)-thieno[3,2-b]pyridin-7-yloxy]-phenyl}-N-pyridin-2-yl-acetamide] | > 10 nM
0 to 5% | < 1 nM | Cc1ccnc(NC(=O)Cc2ccc(Oc3ccnc4cc(-c5nccn5C)sc34)cc2)c1 [Example 11, 2-{4-[2-(1-Methyl-1H-imidazol-2-yl)-thieno[3,2-b]pyridin-7-yloxy]-phenyl}-N-(4-methyl-pyridin-2-yl)-acetamide] | > 10 nM
0 to 5% | < 1 nM | Cc1ccnc(NC(=O)Cc2ccc(Oc3ccnc4cc(C(=O)N5CC[C@@H](O)C5)sc34)cc2)c1 [Example 15, 2-{4-[2-((R)-3-Hydroxy-pyrrolidine-1-carbonyl)-thieno[3,2-b]pyridin-7-yloxy]-phenyl}-N-(4-methyl-pyridin-2-yl)-acetamide] | < 1 nM
5 to 10% | < 1 nM | Cc1cc(C)nc(NC(=O)Cc2ccc(Oc3ccnc4cc(C(=O)N(C)CCN(C)C)sc34)cc2)c1 [Example 6, 7-{4-[(4,6-Dimethyl-pyridin-2-ylcarbamoyl)-methyl]-phenoxy}-thieno[3,2-b]pyridine-2-carboxylic acid (2-dimethylamino-ethyl)-methyl-amide] | > 10 nM
5 to 10% | < 1 nM | Cn1ccnc1-c1cc2nccc(Oc3ccc(CC(=O)Nc4ccc(C(F)(F)F)cn4)cc3)c2s1 [Example 13, 2-{4-[2-(1-Methyl-1H-imidazol-2-yl)-thieno[3,2-b]pyridin-7-yloxy]-phenyl}-N-(5-trifluoromethyl-pyridin-2-yl)-acetamide] | > 10 nM
0 to 5% | < 1 nM | O=C(Cc1ccc(Oc2ccnc3cc(C(=O)N4CCC4)sc23)cc1)Nc1ccc(Br)cn1 [Example 30, 2-{4-[2-(Azetidine-1-carbonyl)-thieno[3,2-b]pyridin-7-yloxy]-phenyl}-N-(5-bromo-pyridin-2-yl)-acetamide] | 1 to 10 nM
5 to 10% | < 1 nM | Cc1cc(C)nc(NC(=O)Cc2ccc(Oc3ccnc4cc(C(=O)N5CC[C@@H](O)C5)sc34)cc2)c1 [Example 14, N-(4,6-Dimethyl-pyridin-2-yl)-2-{4-[2-((R)-3-hydroxy-pyrrolidine-1-carbonyl)-thieno[3,2-b]pyridin-7-yloxy]-phenyl}-acetamide] | 1 to 10 nM
0 to 5% | < 1 nM | O=C(Cc1ccc(Oc2ccnc3cc(C(=O)N4CCC4)sc23)cc1)Nc1ccc2ccccc2n1 [Example 33, 2-{4-[2-(Azetidine-1-carbonyl)-thieno[3,2-b]pyridin-7-yloxy]-phenyl}-N-quinolin-2-yl-acetamide] | > 10 nM
0 to 5% | < 1 nM | Cc1ccc(NC(=O)Cc2ccc(Oc3ccnc4cc(C(=O)N5CCC5)sc34)cc2)nc1 [Example 24, 2-{4-[2-(Azetidine-1-carbonyl)-thieno[3,2-b]pyridin-7-yloxy]-phenyl}-N-(5-methyl-pyridin-2-yl)-acetamide] | 1 to 10 nM
